According to patent US9180183B2, “Phospholipid drug analogs” (Telormedix SA, priority 2010, dated 2015):
Values joined by “and” are separate entries in the source; they are usually repeats but may differ in a detail not shown here. Identical values can stand only once. “Also recorded” adds a separate entry of the source.

Tests used:
[1] = Heat stability of solid samples at 80° C. (HPLC); type: physicochemical; settings: solid sample
Protocol: Solid samples of each compound were maintained at 80° C. and analyzed by HPLC.

PBMCs = assay: IL-6 and TNF-alpha secretion in PBMCs (ELISA), Model 2; type: cell-based, human; settings: three donors
human whole blood = assay: Cytokine secretion in human whole blood assay (ELISA); type: cell-based; settings: for IL-12p40 levels: all donors
Protocol: Before drawing the blood, the compounds were added to 96 well round bottom plates in a 10× diluted sample at 20 ul. The compounds were diluted in RPMI media without serum but with antibiotics. Antibiotics were added at a 10× concentration. After drawing the blood, the whole blood sample was gently mixed to obtain a homogeneous sample, and 180 ul was added to each well.
All compounds were setup in concentrations at 0-0.01-0.03-0.1-0.5-2.0-10.0 micromolar as the final concentration. Vehicle control was DMSO control, where we used the highest concentration used for the compounds. After addition of blood, all plates were gently agitated at 37° C. and 5% CO2 until harvest.
Concentrations of cytokines were determined by ELISA from R&D Systems. The results were analyzed in Graph Pad Prism in order to prepare dose-response curves, and for determination of EC50 values. FACS analysis was made by using Becton-Dickinson FACSDiva software and subsequently illustrated in Graph Pad Prism.

HLA-DR+/CD20+ B cells = assay: FACS analysis of B cell activation in whole blood; type: cell-based, human; settings: 24 hours; 2 and 10 uM; three donors
Protocol: The FACS staining was performed according to the manufacturer's instructions. Lysis of red blood cells was performed before FACS staining in order to minimize auto-florescence. To include as many B cells and DCs in the study as possible the FACS analyses were performed on 500,000 cells in total for each staining. […] The results of the individual analysis were present as Mean Fluorescence Intensity
The analysis of expression of the activation marker CD40 on B cells was made on double positive HLA-DR (MHC class II) (P4 gate) and CD20 cells (B cell marker) (P8 gate).

[2] = tested on: HLA-DR+/CD11c-/CD123+ pDCs; assay: FACS analysis of plasmacytoid DC activation in whole blood; type: cell-based, human; settings: 24 hours; 0.1 and 0.5 uM; three donors
Protocol: A flow cytometric analysis was performed on whole blood from three donors after treatment with two compound concentrations for 24 h. The FACS analysis for donor 1 and donor 2 was made on another day than donor 3. The compound concentrations were as follows:
The FACS analysis was used to identify whether the test compounds could induce activation of B cells, and two different subsets of dendritic cells, namely the myeloid CD11c+/CD123− DCs and the plasmacytoid CD11c−/CD123+ DCs. The following markers were studied to identify the activation status of the different subsets:
The FACS staining was performed according to the manufacturer's instructions. Lysis of red blood cells was performed before FACS staining in order to minimize auto-florescence. To include as many B cells and DCs in the study as possible the FACS analyses were performed on 500,000 cells in total for each staining. A P1 gate was set only to include relevant cells on FSC vs. SSC (see FIGS. 12-15). The results of the individual analysis were present as Mean Fluorescence Intensity
The analysis of pDCs was based on HLA-DR+/CD11c−/CD123+ cells, thus all analyzed cells were included in the HLA-DR+ (P3) gate and CD11c−/CD123+ (Q1) gate. (FIGS. 13-15).

[3] = tested on: Salmonella typhimurium TA1535, TA1537, TA98, TA100; assay: Bacterial mutation assay, Salmonella typhimurium; type: cell-based; settings: absence or presence of S9 metabolism
Protocol: (§1) The five tester strains TA1535, TA1537, TA98, TA100 and WP2 uvrA were used. Experiments were performed both in the absence and presence of metabolic activation, using liver S9 fraction from rats pre-treated with phenobarbitone and betanaphthoflavone. SC12 was used as a solution in dimethylsulfoxide (DMSO).

[4] = tested on: Escherichia coli WP2 uvrA; assay: Bacterial mutation assay, Escherichia coli; type: cell-based; settings: absence or presence of S9 metabolism
Protocol: as §1

[5] = tested on: 73 primary molecular targets (human recombinant receptor types and subtypes or membrane fraction from rodent tissue homogenates); assay: Radioligand binding assay among 73 primary molecular targets; settings: SC12 at 30 microM
CYP2C9 = CYP2C9 (Homo sapiens (Human), UniProt P11712); assay: Fluorescent High Throughput P450 assay CYP2C9; type: in vitro ADME
Chain of CYP2C9 (P11712 whole entry, looked up): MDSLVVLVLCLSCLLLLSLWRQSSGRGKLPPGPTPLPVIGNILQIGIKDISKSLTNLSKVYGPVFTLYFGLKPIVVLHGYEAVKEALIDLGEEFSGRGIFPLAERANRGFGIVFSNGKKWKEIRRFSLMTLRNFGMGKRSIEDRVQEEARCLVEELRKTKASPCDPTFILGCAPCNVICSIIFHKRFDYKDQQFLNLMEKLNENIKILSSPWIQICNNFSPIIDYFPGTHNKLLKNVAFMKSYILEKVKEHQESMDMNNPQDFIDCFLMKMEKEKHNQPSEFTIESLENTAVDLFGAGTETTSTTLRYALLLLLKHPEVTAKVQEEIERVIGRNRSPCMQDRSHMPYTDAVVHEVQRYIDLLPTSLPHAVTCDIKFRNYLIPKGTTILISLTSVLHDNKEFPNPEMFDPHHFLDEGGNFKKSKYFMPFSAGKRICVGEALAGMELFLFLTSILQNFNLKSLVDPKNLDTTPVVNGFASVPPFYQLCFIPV
Protocol: (§2) Inhibition of the P450 isoforms was measured in specific assays using specific substrates that become fluorescent upon CYP metabolism. Compounds, dissolved in ACN (acetonitrile) (CYP2E1, CYP2C8, CYP2B6, CYP3A5) or DMSO (all remaining isoforms), were tested in duplicate (n=2) in concentration-response curves (eight concentrations) in a 96-well plate containing incubation/NADPH regenerating buffer. Specific isoenzymes and substrates were added and incubated at 37° C. Reactions were terminated at different times, depending on the assays, and plates read on a Fluoroskan Ascent at the appropriate emission/excitation wavelengths. Concentration-response curves performed in duplicate for known inhibitors for each isoenzyme were tested in every assay as positive control.

CYP3A4 = CYP3A4 (Homo sapiens (Human), UniProt P08684); assay: Fluorescent High Throughput P450 assay CYP3A4; type: in vitro ADME
Chain of CYP3A4 (P08684 whole entry, looked up): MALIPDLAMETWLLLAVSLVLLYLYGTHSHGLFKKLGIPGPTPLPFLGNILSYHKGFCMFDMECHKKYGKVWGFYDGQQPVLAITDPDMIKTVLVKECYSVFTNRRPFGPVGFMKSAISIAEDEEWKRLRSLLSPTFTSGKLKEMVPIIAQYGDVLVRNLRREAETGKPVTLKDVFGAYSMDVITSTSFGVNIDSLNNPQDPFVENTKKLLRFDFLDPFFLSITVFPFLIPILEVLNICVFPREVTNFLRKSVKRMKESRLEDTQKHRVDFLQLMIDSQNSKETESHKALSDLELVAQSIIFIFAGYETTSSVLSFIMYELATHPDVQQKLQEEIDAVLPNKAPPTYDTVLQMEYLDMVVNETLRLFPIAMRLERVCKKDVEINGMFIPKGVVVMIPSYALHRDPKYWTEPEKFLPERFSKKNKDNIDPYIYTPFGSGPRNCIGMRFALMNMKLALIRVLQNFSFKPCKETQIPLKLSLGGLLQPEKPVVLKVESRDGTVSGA
Protocol: as §2

CYP3A5 = CYP3A5 (Homo sapiens (Human), UniProt P20815); assay: Fluorescent High Throughput P450 assay CYP3A5; type: in vitro ADME
Chain of CYP3A5 (P20815 whole entry, looked up): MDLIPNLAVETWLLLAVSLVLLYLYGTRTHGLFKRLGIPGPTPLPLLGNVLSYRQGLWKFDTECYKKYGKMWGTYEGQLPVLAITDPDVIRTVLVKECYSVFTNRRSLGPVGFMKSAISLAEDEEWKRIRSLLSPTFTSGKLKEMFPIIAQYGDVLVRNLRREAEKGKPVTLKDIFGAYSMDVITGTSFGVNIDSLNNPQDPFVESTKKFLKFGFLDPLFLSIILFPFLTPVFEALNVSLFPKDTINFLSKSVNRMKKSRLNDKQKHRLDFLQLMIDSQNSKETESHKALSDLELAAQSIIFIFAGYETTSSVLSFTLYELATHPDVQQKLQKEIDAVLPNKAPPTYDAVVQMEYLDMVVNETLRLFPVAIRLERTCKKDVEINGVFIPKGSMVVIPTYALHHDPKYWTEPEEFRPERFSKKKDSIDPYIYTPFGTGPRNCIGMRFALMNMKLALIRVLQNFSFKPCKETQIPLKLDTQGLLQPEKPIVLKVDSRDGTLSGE
Protocol: as §2

[6] = tested on: Cutaneous Squamous Cell Carcinoma (SCC) cell lines SCL-I, SCL-II, SCC-12, SCC-13; assay: Proapoptotic and cytotoxic effects on cutaneous SCC cell lines (real-time cell analysis, microscopy); type: cell-based, human
Protocol: SCC cells are grown under standard conditions (10% FBS).
Time and dose dependency of effects on total cell numbers have been investigated by real-time cell analysis, which is based on continuous monitoring of electric conductance in microtiter wells (E-plates, Roche), which corresponds to the cell numbers. […] For these assays 4 cell lines should be used to obtain a representative overview on the effects on SCC cells.

[7] = tested on: recombinant protein antigens from Plasmodium falciparum and Mycobacterium ulcerans; assay: Pilot immunization study with adjuvanted protein antigens in mice; type: in vivo
Protocol: A pilot immunization study was conducted using Compound A and SC12 adjuvanted protein antigens. The immunization experiments were performed with two recombinant proteins expressed in E. coli. One antigen was derived from the malaria parasite Plasmodium falciparum and the other one from Mycobacterium ulcerans, which cause the ulcerative skin disease Buruli ulcer.

[8] = Serum exposure after intravesical chronic treatment in mouse; settings: intravesical, LLOQ 0.5 ng/ml
Protocol: Serum samples were taken at time points: day 0, 2 hours, day 1, 24 hours, and day 6, 2 hours.
Samples were evaporated and re-suspended in 70 microliters of acetonitrile/methanol 1:1.

[9] = Solubility in organic solvents; type: physicochemical; settings: especially in ACN
[10] = tested on: AY-27 rat bladder cancer cell-line; settings: day 12
[11] = whole blood, 6 hours incubation
[12] = toxicity test, 50.0-5000 micrograms/plate

Molecule `CCCCCCCCCCCC(=O)OCC(COP(=O)(O)OCCNC(=O)c1ccc(Cn2c(=O)[nH]c3c(N)nc(OCCOC)nc32)cc1)OC(=O)CCCCCCCCCCC` (stereo not drawn) [SC12] has an HPLC purity ([1]; After 2 hrs at 80° C.) of 90% HPLC, an HPLC purity ([1]; After 22 hrs at 80° C.) of 88% HPLC and an HPLC purity ([1]; t = 0) of 90% HPLC. For the same molecule, the “induction of IL-6 and TNF-alpha secretion (in words)” value (PBMCs) was “most potent TLR7 agonists”, the “induction of DC secreted cytokines (in words)” value (human whole blood; supernatant from whole blood cell assays) was “potent inducers” and the “range of IL-6 secretion” value (human whole blood; whole blood, three donors) was 4000 to 8000 pg/mL. The “ranges of IFN-alpha secreted” value (human whole blood; whole blood, three donors) was 1000 to 2000 pg/mL, the “IL-10 production (in words)” value (human whole blood; [11]) was “no IL-10 production was seen” and the IL-12p40 levels (human whole blood; [11]) was 8.000 to 12.000 pg/mL. The IL-12p40 levels (human whole blood; whole blood, 24 hours incubation) was 20.000 to 25.000 pg/mL, the “CD40 expression (MFI, in words)” value (HLA-DR+/CD20+ B cells) was “induced CD40 expression in donor 1 and donor 2 in all tested concentrations” and the “CD80 expression in pDCs (MFI, in words)” value [2] was “induces a slightly higher CD80 expression than compound A”. For the same molecule, the “CD86 expression in pDCs (MFI, in words)” value [2] was “tendency to induce higher CD86 expression than compound A”, the “toxicity to tester strains” value [3, 12] was “No toxicity was observed” and the “reverse mutation / revertant colonies” value ([3]; up to 5000 micrograms/plate) was “did not induce two-fold increases in the number of revertant colonies; also recorded: does not induce reverse mutation”. For the same molecule, the “toxicity to tester strains” value [4, 12] was “No toxicity was observed”, the “reverse mutation / revertant colonies” value ([4]; up to 5000 micrograms/plate) was “did not induce two-fold increases in the number of revertant colonies; also recorded: does not induce reverse mutation” and the “binding to receptors associated with pain-related syndromes (e.g. adenosine and sodium channel)” value [5] was “did not bind”. For the same molecule, the “inhibition of CYP2C9 (in words)” value (CYP2C9) was “weak inhibition”, the “inhibition of CYP3A4 (in words)” value (CYP3A4) was “moderate inhibition” and the “inhibition of CYP3A5 (in words)” value (CYP3A5) was “moderate inhibition”. The “morphological changes (microscopy)” value ([6]; SCC cells, time of treatment 3d, 120 microM) was “cell detachment, morphological changes and inhibition of proliferation”, the “cell numbers (real-time cell analysis, electric conductance)” value ([6]; cutaneous SCC cell lines) was “reduced cell numbers” and the local side effects ([7]; three s.c. immunizations with 10 nMol adjuvant) was “No local side effects”. The “IgG responses against the target antigens” value ([7]; three s.c. immunizations, 20 micrograms antigen mixed with 10 nMol adjuvant, after the third immunization) was “developed IgG responses”, the “SC12 levels in serum, Mean ± S.D.” value ([8]; Day 0, 2 hours) was 0.5 ± 0.5 ng/mL and the “SC12 levels in serum, individual mice” value ([8]; Day 0, 2 hours) was “<LLOQ (2×) and 1.0 ng/ml and 0.5 ng/ml”. For the same molecule, the “SC12 levels in serum, Mean ± S.D.” value ([8]; Day 1, 24 hours) was “<LLOQ”, the “SC12 levels in serum, individual mice” value ([8]; Day 1, 24 hours) was “<LLOQ” and the “SC12 levels in serum, Mean ± S.D.” value ([8]; Day 6, 2 hours) was “<LLOQ”. The “SC12 levels in serum, individual mice” value ([8]; Day 6, 2 hours) was “<LLOQ”, the solubility [9] was “low solubility” and the “Range of weight of the rat bladders” value ([10]; 0.5 ml intravesical instillation (Imiquimod 0.1%, SC12 0.38%) on day 2 and 5) was 0.0780-0.1422 grams. The “Tumor free (% of rats)” value ([10]; of 14 rats per group) was 42.9%, the “Tumor free (number of rats)” value ([10]; of 14 rats per group) was 6 and the “pT2 Tumor (% of rats)” value ([10]; of 14 rats per group) was 50.0%. The “pT2 Tumor (number of rats)” value ([10]; of 14 rats per group) was 7, the “pTa Tumor (% of rats)” value ([10]; of 14 rats per group) was 7.1% and the “pTa Tumor (number of rats)” value ([10]; of 14 rats per group) was 1.
